Data as given in the CheMixHub viscosity set.

Assay: xn = mol fraction of the nth substance listed

C1CCCC1 + CCCCCO
101.3 kPa
Conditions	viscosity [mPa·s]
298.15 K, x1 = 0.0498	3.211
298.15 K, x1 = 0.0796	3.013
298.15 K, x1 = 0.1294	2.679
298.15 K, x1 = 0.1855	2.343
298.15 K, x1 = 0.2386	2.037
298.15 K, x1 = 0.2579	1.924
298.15 K, x1 = 0.2645	1.883
298.15 K, x1 = 0.2919	1.755
298.15 K, x1 = 0.3012	1.709
298.15 K, x1 = 0.351	1.481
298.15 K, x1 = 0.3712	1.406
298.15 K, x1 = 0.4221	1.221
298.15 K, x1 = 0.4544	1.118
298.15 K, x1 = 0.5073	0.992
298.15 K, x1 = 0.5388	0.926
298.15 K, x1 = 0.569	0.869
298.15 K, x1 = 0.596	0.827
298.15 K, x1 = 0.6189	0.79
298.15 K, x1 = 0.6343	0.771
298.15 K, x1 = 0.6621	0.739
298.15 K, x1 = 0.6893	0.707
298.15 K, x1 = 0.7282	0.685
298.15 K, x1 = 0.774	0.663
298.15 K, x1 = 0.8207	0.613
298.15 K, x1 = 0.8699	0.566
298.15 K, x1 = 0.9192	0.515
298.15 K, x1 = 0.9698	0.447
308.15 K, x1 = 0.0419	2.415
308.15 K, x1 = 0.1319	2.057
308.15 K, x1 = 0.2149	1.783
308.15 K, x1 = 0.2986	1.542
308.15 K, x1 = 0.3735	1.35
308.15 K, x1 = 0.4	1.287
308.15 K, x1 = 0.4437	1.19
308.15 K, x1 = 0.4804	1.118
308.15 K, x1 = 0.5152	1.049
308.15 K, x1 = 0.6882	0.817
308.15 K, x1 = 0.7025	0.798
308.15 K, x1 = 0.7196	0.781
308.15 K, x1 = 0.7454	0.752
308.15 K, x1 = 0.7726	0.727
308.15 K, x1 = 0.809	0.681
308.15 K, x1 = 0.8542	0.617
308.15 K, x1 = 0.9094	0.517
308.15 K, x1 = 0.955	0.418
318.15 K, x1 = 0.1213	1.768
318.15 K, x1 = 0.1891	1.573
318.15 K, x1 = 0.2652	1.36
318.15 K, x1 = 0.34	1.171
318.15 K, x1 = 0.4015	1.035
318.15 K, x1 = 0.4409	0.953
318.15 K, x1 = 0.4863	0.864
318.15 K, x1 = 0.5184	0.807
318.15 K, x1 = 0.5402	0.775
318.15 K, x1 = 0.5588	0.74
318.15 K, x1 = 0.6063	0.67
318.15 K, x1 = 0.665	0.593
318.15 K, x1 = 0.7127	0.537
318.15 K, x1 = 0.7882	0.467
318.15 K, x1 = 0.8688	0.405
318.15 K, x1 = 0.9451	0.359

OCc1ccccc1 + Clc1ccccc1
303.15 K, 101 kPa
Conditions	viscosity [mPa·s]
x1 = 0.1372	0.9498
x1 = 0.2844	1.158
x1 = 0.3371	1.26
x1 = 0.4255	1.459
x1 = 0.5741	1.907
x1 = 0.6507	2.212
x1 = 0.7556	2.713
x1 = 0.8031	2.982
x1 = 0.9053	3.662

CCCCC(CC)C(=O)OCC(COC(=O)C(CC)CCCC)(COC(=O)C(CC)CCCC)COC(=O)C(CC)CCCC (stereo not given) + CCCCCCC(=O)OCC(COC(=O)CCCCCC)(COC(=O)CCCCCC)COC(=O)CCCCCC
100 kPa, x1 = 0.667
Conditions	viscosity [mPa·s]
303.15 K	51.7
313.15 K	32.6
323.15 K	20.7

CN1CCCC1=O + CCC(C)O
viscosity [mPa·s], 101.3 kPa
Conditions	x2 = 0.1049	x2 = 0.4019	x2 = 0.5003
293.15 K	1.815	–	–
313.15 K	–	1.285	1.285

OCc1ccccc1 + CCCO
viscosity [mPa·s], 101 kPa
Conditions	x1 = 0.0744	x1 = 0.1531	x1 = 0.2366	x1 = 0.3252	x1 = 0.4196	x1 = 0.5203	x1 = 0.6278	x1 = 0.7431	x1 = 0.8668
298.15 K	2.038	2.197	2.401	2.651	2.932	3.25	3.593	3.99	4.433
303.15 K	1.796	1.918	2.083	2.288	2.52	2.783	3.071	3.404	3.776
308.15 K	1.587	1.687	1.828	2.002	2.201	2.429	2.678	2.967	3.292
313.15 K	1.368	1.447	1.562	1.709	1.877	2.07	2.282	2.53	2.807

CCC(=O)CC + CCCCN
303.15 K, 101.33 kPa
Conditions	viscosity [mPa·s]
x2 = 0.1145	0.519
x2 = 0.2006	0.59
x2 = 0.3211	0.678
x2 = 0.417	0.735
x2 = 0.5421	0.784
x2 = 0.7264	0.752
x2 = 0.8234	0.681
x2 = 0.8922	0.62
